Consider 7 molecules from ChEMBL document CHEMBL3585330, “Anticancer activity of koningic acid and semisynthetic derivatives” (Bioorg Med Chem, 2015).

Calls of active or inactive are those of the source. No cut-off for these calls is given here. A value given as a limit tells only on which side of the number the result lay.

What is called IC50 is the concentration that inhibits the measured activity by half.

Common to all, as to assay type: functional, cell-based
One assay has as its system MDA-MB-231. The assay can be described thus: Cytotoxicity against human MDA-MB-231 cells incubated for 72 hrs under hypoxic conditions by MTS assay.
The subject of a further assay is A-375. The assay can be described thus: Antiproliferative activity against human A375 cells assessed as inhibition of cell proliferation incubated for 72 hrs by conventional ATP quantification method. Conditions: A-375, 72 h.
The subject of another assay is HT-29. The assay can be described thus: Cytotoxicity against human HT-29 cells incubated for 72 hrs under hypoxic conditions by MTS assay. On the technique in general: Tetrazolium dyes change colour on reduction, which living cells bring about.
A further assay deals with KM12. The assay can be described thus: Antiproliferative activity against human KM12 cells assessed as inhibition of cell proliferation incubated for 72 hrs by conventional ATP quantification method. Conditions: KM12, 72 h.
Assay [1] has as its system A549. The assay can be described thus: (§1) Antiproliferative activity against human A549 cells assessed as inhibition of cell proliferation incubated for 72 hrs by conventional ATP quantification method. Conditions: A549, 72 h.
The next assay relates to HOP-62. The assay can be described thus: Antiproliferative activity against human HOP62 cells assessed as inhibition of cell proliferation incubated for 72 hrs by conventional ATP quantification method. The note with it: HOP-62, 72 h.
A short description of assay [2]: Antiproliferative activity against human WM266.4 cells assessed as inhibition of cell proliferation incubated for 72 hrs by conventional ATP quantification method. Conditions: WM 266-4, 72 h.
Another assay concerns NCI-H460. The assay can be described thus: Antiproliferative activity against human NCI-H460 cells assessed as inhibition of cell proliferation incubated for 72 hrs by conventional ATP quantification method. Conditions: NCI-H460, 72 h.
The test system of a further assay is T47D. The assay can be described thus: Antiproliferative activity against human T47D cells assessed as inhibition of cell proliferation incubated for 72 hrs by conventional ATP quantification method.
A further assay has as its system DU-145. The assay can be described thus: Antiproliferative activity against human DU145 cells assessed as inhibition of cell proliferation incubated for 72 hrs by conventional ATP quantification method. Conditions: DU-145, 72 h.
The next assay deals with TK-10. The assay can be described thus: Antiproliferative activity against human TK10 cells assessed as inhibition of cell proliferation incubated for 72 hrs by conventional ATP quantification method. Conditions: TK-10, 72 h.
The next assay has as its system OVCAR-3. The assay can be described thus: Antiproliferative activity against human OVCAR3 cells assessed as inhibition of cell proliferation incubated for 72 hrs by conventional ATP quantification method. The note with it: OVCAR-3, 72 h.
In assay [3] the test system is A549. The description is as §1. Conditions: A549, 72 h. This is another data set of the same source.
The next assay relates to SK-OV-3. The assay can be described thus: Antiproliferative activity against human SKOV3 cells assessed as inhibition of cell proliferation incubated for 72 hrs by conventional ATP quantification method. The note with it: SK-OV-3, 72 h.
Assay [4] in a line: Antiproliferative activity against human NAMALWA cells assessed as inhibition of cell proliferation incubated for 72 hrs by conventional ATP quantification method. The note with it: NAMALVA.
Another assay has as its system HCT-116. The assay can be described thus: Antiproliferative activity against human HCT116 cells assessed as inhibition of cell proliferation incubated for 72 hrs by conventional ATP quantification method. The note with it: HCT-116, 72 h.
The subject of another assay is PANC-1. The assay can be described thus: Induction of ROS generation in human PANC1 cells incubated for 1 hr by DCFH-DA dye based assay.

With `COc1cccc2c1C(=O)c1c(O)c3c(c(O)c1C2=O)C[C@@](O)(C(=O)CO)C[C@@H]3O[C@H]1C[C@H](N)[C@H](O)[C@H](C)O1` [DOXORUBICIN], the result with MDA-MB-231 and in the assay with HT-29 was inactive. The IC50 with A-375 came out at 10 nM; in the assay on KM12, 20 nM; with A549 [1] it was 30 nM; with HOP-62 it was 20 nM; in assay [2], 150 nM; with NCI-H460 it was 20 nM. In addition, the IC50 in the assay on T47D, in the assay on DU-145, with TK-10, with OVCAR-3, in the assay with A549 [3] and in the assay with SK-OV-3 was 20 nM in each case.

On to `CC(C)[C@H]1CC[C@@](O)(CCl)[C@H]2C(=O)OCC(C(=O)O)=C[C@H]12` [HEPTELIDIC ACID CHLOROHYDRIN], for which the IC50 is 320 nM in assay [4]; 1310 nM in the assay on A-375; 550 nM in the assay on A549 [1]; 220 nM with HCT-116; 550 nM in assay [2].

With `CNC(=O)C1=C[C@@H]2[C@@H](C(C)C)CC[C@@](O)(CO)[C@H]2C(=O)OC1`, the IC50 (in [4]; in the assay on A-375; in the assay with A549 [1]; in the assay with HCT-116; in [2]) was more than 32000 nM throughout.

With `C=C(C(=O)O)C1OC(=O)[C@H]2[C@H]1[C@@H](C(C)C)CC[C@@]2(O)CI` (stereo not given in full), the IC50 (in assay [4]; with A-375; with A549 [1]; with HCT-116; in assay [2]) was more than 10000 nM in each case.

For the molecule BLEOMYCIN, the result with PANC-1 was Active.

With `CC(C)[C@H]1CC[C@@](O)(CI)[C@H]2C(=O)OCC(C(=O)O)=C[C@H]12`, the IC50 in assay [4] was 3260 nM; with A-375 it was more than 10000 nM; in the assay on A549 [1], 5430 nM; in the assay with HCT-116 it was 2140 nM; in [2], 10100 nM.

Take `CC(C)[C@H]1CC[C@@]2(CO2)[C@H]2C(=O)OCC(C(=O)OCc3ccc(-c4ccccc4)o3)=C[C@H]12`: the IC50 in [4] turned out to be 370 nM; with A-375, 1310 nM; in the assay with A549 [1], 350 nM; in the assay on HCT-116, 220 nM; in assay [2], 960 nM.
